From patent US12435061B2 (priority 2020, dated 2025)
Converted amounts (≈) assume the structure as drawn. Like-named read-outs stand apart in the source and are kept apart here.

Legend:
hTRPV3 [1] = biological target: T1, hTRPV3 (Homo sapiens (Human), UniProt Q8NET8); experiment: hTRPV3 HAMA IC50 assay (Hamamatsu FDSS6000 calcium flux, TRex-293 cells)
Method: IC50s were calculated using CBIS from ChemInnovation (San Diego).

hTRPV3 [2] = biological target: T1, hTRPV3; experiment: Whole-cell patch clamp, hTRPV3 Phase 1 / Phase 2 currents; format: cell-based
How it was run: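 Currents are activated by 20 μM 2-APB or by perfusate at 28 °C or warmer, in Ringer's solution, and quantified at ±80 mV.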

[3] = Aqueous solubility assay in Normal Ringer Solution; conditions: Normal Ringer Solution; for solubility at 40 min: saline or isotonic, kinetic from dmso stock
Method: Following vortex and incubation for a sufficient time (e.g. 40 minutes at room temperature), solutions were filtered, quenched with acetonitrile, and analyzed by Liquid Chromotography. Solubility Limits were determined by comparison to a standard curve.

[4] = Metabolic Stability assay, rat liver microsomes; format: in vitro ADME
Method: Metabolic Stability assay: The metabolic stability was determined by adding compound dissolved in DMSO to human or rat, liver microsomes. Briefly, assays were run with a starting concentration of 1 μM test article. The reaction was started by addition of NADPH regeneration components at 37° C. at which time an aliquot was immediately quenched in ice-cold acetonitrile/MeOH/H2O solution. Reaction mixture was incubated at 37° C. on a shaker, and additional aliquots were taken at 7, 15, 30 and 60 minutes. Following quench and centrifugation, samples were analyzed on HPLC/MS/MS.

[5] = Phase 1 current, inward, whole-cell patch clamp, read-out: hTRPV3 Patch P1 Inwd
[6] = Phase 1 current, read-out: hTRPV3 (nM) (Phase 1)
[7] = Phase 2 current, inward, whole-cell patch clamp, read-out: hTRPV3 Patch P2 Inwd
[8] = Phase 2 current, read-out: hTRPV3 (nM) (Phase 2)

T1 sequence (Q8NET8 whole entry): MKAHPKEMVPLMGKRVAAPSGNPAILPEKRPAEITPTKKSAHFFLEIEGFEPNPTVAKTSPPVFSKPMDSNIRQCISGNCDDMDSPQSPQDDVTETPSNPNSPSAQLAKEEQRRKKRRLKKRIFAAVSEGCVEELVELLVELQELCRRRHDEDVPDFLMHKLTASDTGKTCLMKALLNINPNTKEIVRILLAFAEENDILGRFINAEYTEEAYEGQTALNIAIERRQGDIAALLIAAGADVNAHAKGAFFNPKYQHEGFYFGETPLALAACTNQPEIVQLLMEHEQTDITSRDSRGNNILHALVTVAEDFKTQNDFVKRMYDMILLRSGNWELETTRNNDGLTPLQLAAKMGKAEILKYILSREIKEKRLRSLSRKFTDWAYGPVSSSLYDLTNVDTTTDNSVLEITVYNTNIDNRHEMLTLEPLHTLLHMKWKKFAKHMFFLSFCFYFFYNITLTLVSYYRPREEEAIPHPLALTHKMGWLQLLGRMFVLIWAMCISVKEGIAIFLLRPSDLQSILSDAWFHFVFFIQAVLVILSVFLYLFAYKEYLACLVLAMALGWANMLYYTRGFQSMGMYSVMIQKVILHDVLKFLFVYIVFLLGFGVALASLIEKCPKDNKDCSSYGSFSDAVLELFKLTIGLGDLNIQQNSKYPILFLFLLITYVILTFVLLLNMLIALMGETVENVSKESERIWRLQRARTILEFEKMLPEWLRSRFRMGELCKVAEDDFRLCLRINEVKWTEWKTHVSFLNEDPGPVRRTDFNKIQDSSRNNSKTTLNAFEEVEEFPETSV

| Compound | hTRPV3 HAMA IC50 (nM) (5 min) (hTRPV3 [1]) | IC50 (hTRPV3 [2]; [5]) [nM] | IC50 (hTRPV3 [2]; [6]) [nM] | IC50 (hTRPV3 [2]; [7]) [nM] | IC50 (hTRPV3 [2]; [8]) [nM] | solubility at 40 min [3] [µM] | half-life at 1 μM ([4]; read-out: LM T1/2 (min) (rat)) | also measured |
| --- | --- | --- | --- | --- | --- | --- | --- | --- |
| O=[N+]([O-])c1ccccc1N1CC[C@H](Oc2ccc3cc(Cl)ccc3n2)C1 [Compound 1-68, (S)-6-chloro-2-(1-(2-nitrophenyl)pyrrolidin-3-yloxy)quinoline] | no fit (5 min) | > 1000 | > 3200 | > 1000 | > 3200 |  |  |  |
| Cc1ccccc1Oc1ccc(N2CC[C@H](Oc3ccc(C(F)(F)F)cn3)C2)c(CO)n1 [Compound 1-226, (S)-(6-(o-tolyloxy)-3-(3-(5-(trifluoromethyl)pyridin-2-yloxy)pyrrolidin-1-yl)pyridin-2-yl)methanol] | no fit (5 min) no fit (30 min) | 100 to 1000 | ~158 |  |  |  |  | hTRPV3 HAMA IC50 (nM) (30 min) (hTRPV3 [1]): no fit (5 min) no fit (30 min) |
| CCc1ccccc1-c1ccc(CO)c(N2CC[C@H](Oc3ccc(C(F)(F)F)cn3)C2)c1 [Compound 1-227, (S)-(2′-ethyl-3-(3-(5-(trifluoromethyl)pyridin-2-yloxy)pyrrolidin-1-yl)biphenyl-4-yl)methanol] | no fit (5 min) no fit (30 min) | 100 to 1000 | 200 |  |  |  |  | hTRPV3 HAMA IC50 (nM) (30 min) (hTRPV3 [1]): no fit (5 min) no fit (30 min) |
| N#Cc1cc(-c2ccccc2)ccc1N1CC[C@H](Oc2ccc(C(F)(F)F)cn2)C1 [Compound 1-56, (S)-4-(3-(5-(trifluoromethyl)pyridin-2-yloxy)pyrrolidin-1-yl)biphenyl-3-carbonitrile] | R2 fail (5 min) |  |  | 100 to 1000 | ~504 |  |  |  |
| OCc1cc(-c2ccccc2C(F)(F)F)ccc1N1CC[C@H](Oc2ccc(C(F)(F)F)cn2)C1 [Compound 1-152, (S)-(2′-(trifluoromethyl)-4-(3-(5-(trifluoromethyl)pyridin-2-yloxy)pyrrolidin-1-yl)biphenyl-3-yl)methanol] | no fit (5 min) | 10 to 100 | 20.4 |  |  |  |  |  |
| OCc1ccc(Oc2ccccc2Cl)cc1N1CC[C@H](Oc2ccc(C(F)(F)F)cn2)C1 [Compound 1-224, (S)-(4-(2-chlorophenoxy)-2-(3-(5-(trifluoromethyl)pyridin-2-yloxy)pyrrolidin-1-yl)phenyl)methanol] | no fit (5 min) no fit (30 min) | 100 to 1000 | 161 |  |  |  |  | hTRPV3 HAMA IC50 (nM) (30 min) (hTRPV3 [1]): no fit (5 min) no fit (30 min) |
| NC(=O)c1c(-c2ccccc2)cccc1N1CC[C@H](Oc2ccc(C(F)(F)F)cn2)C1 [Compound 1-72, (S)-3-(3-(5-(trifluoromethyl)pyridin-2-yloxy)pyrrolidin-1-yl)biphenyl-2-carboxamide] | no fit (5 min) |  |  | > 1000 | > 3200 |  |  | hTRPV3 (nM) (Phase 1) (hTRPV3 [2]; Phase 1 current): Agonist |
| CCc1ccccc1-c1ccc(N2CC[C@H](Oc3ccc(C)cn3)C2)c(CO)n1 [Compound 1-185, (S)-(6-(2-ethylphenyl)-3-(3-(5-methylpyridin-2-yloxy)pyrrolidin-1-yl)pyridin-2-yl)methanol] | no fit (5 min) no fit (30 min) | > 1000 | > 3200 | > 1000 | 2950 |  |  | hTRPV3 HAMA IC50 (nM) (30 min) (hTRPV3 [1]): no fit (5 min) no fit (30 min) |
| Cc1ccccc1-c1ccc(CO)c(N2CC[C@H](Oc3ccc(C(F)(F)F)cn3)C2)c1 [Compound 1-239, (S)-(2′-methyl-3-(3-(5-(trifluoromethyl)pyridin-2-yloxy)pyrrolidin-1-yl)biphenyl-4-yl)methanol] | no fit (5 min) no fit (30 min) | 100 to 1000 | 607 |  |  |  |  | hTRPV3 HAMA IC50 (nM) (30 min) (hTRPV3 [1]): no fit (5 min) no fit (30 min) |
| FC(F)(F)c1ccc(O[C@@H]2CCN(c3ccccc3-c3ccccc3)C2)nc1 [Compound 1-28, (R)-2-(1-(biphenyl-2-yl)pyrrolidin-3-yloxy)-5-(trifluoromethyl)pyridine] | no fit (5 min) | > 1000 | > 3200 |  |  |  |  |  |
| Cc1cccnc1O[C@H]1CCN(c2ccc(-c3ccccc3Cl)cc2CCO)C1 [Compound 1-194, (S)-2-(2′-chloro-4-(3-(3-methylpyridin-2-yloxy)pyrrolidin-1-yl)biphenyl-3-yl)ethanol] | no fit (5 min) | 100 to 1000 | 327 |  |  |  |  |  |
| Cc1ccccc1C(=O)c1ccc(N2CC[C@H](Oc3ncccc3Cl)C2)c(CO)c1 [Compound 1-246, (S)-(4-(3-(3-chloropyridin-2-yloxy)pyrrolidin-1-yl)-3-(hydroxymethyl)phenyl)(o-tolyl)methanone] |  | 100 to 1000 | 136 | 100 to 1000 | 136 | ~1.87 (≈ 0.791 µg/mL) | 7.36 |  |
| COC(c1ccc(F)cc1)c1ccc(N2CC[C@H](Oc3ncccc3Cl)C2)c(CO)c1 (stereo partly drawn) [Compound 1-289, (2-((S)-3-(3-chloropyridin-2-yloxy)pyrrolidin-1-yl)-5-((4-fluorophenyl)(methoxy)methyl)phenyl)methanol] |  | 10 to 100 | 66.2 |  |  | ~1.75 (≈ 0.775 µg/mL) | 9.22 |  |
| CCc1ccccc1Oc1ccc(N2CC[C@H](OCc3ncccc3C)C2)c(CO)c1 [Compound 1-398] |  |  | 187 |  | 64.8 | ~1.4 (≈ 0.586 µg/mL) | 5.19 |  |
| Cc1ccccc1C(=O)c1ccc(N2CC[C@H](Oc3ncccc3F)C2)c(CO)c1 [Compound 1-243, (S)-(4-(3-(3-fluoropyridin-2-yloxy)pyrrolidin-1-yl)-3-(hydroxymethyl)phenyl)(o-tolyl)methanone] |  | 100 to 1000 | 296 |  |  | ~7.34 (≈ 2.98 µg/mL) | 6.26 |  |
| OCCOc1cc(-c2ccccc2)ccc1N1CC[C@@H](Oc2ccc(C(F)(F)F)cn2)C1 [Compound 1-117, (R)-2-(4-(3-(5-(trifluoromethyl)pyridin-2-yloxy)pyrrolidin-1-yl)biphenyl-3-yloxy)ethanol] |  | > 1000 | 1920 | 100 to 1000 | 486 | ~2 (≈ 0.889 µg/mL) | 79.8 |  |
| CCc1c(Cl)ncnc1Oc1ccc(N2CC[C@H](Oc3ncccc3Cl)C2)c(CO)c1 [Compound 1-358, (S)-(5-(6-chloro-5-ethylpyrimidin-4-yloxy)-2-(3-(3-chloropyridin-2-yloxy)pyrrolidin-1-yl)phenyl)methanol] |  | 100 to 1000 | 174 |  |  | ~2.1 (≈ 0.969 µg/mL) | 16.7 |  |
| Oc1cc(-c2ccccc2Cl)ccc1N1CC[C@@H](Oc2ccc(C(F)(F)F)cn2)C1 [Compound 1-113, (R)-2′-chloro-4-(3-(5-(trifluoromethyl)pyridin-2-yloxy)pyrrolidin-1-yl)biphenyl-3-ol] |  | 100 to 1000 | ~97.5 | 100 to 1000 | 109 |  | 33.5 | Solubility Ringer (nM) ([3]; room temperature): BLQ |
| CC(=O)c1ccccc1-c1ccc(N2CC[C@H](Oc3ccc(C(F)(F)F)cn3)C2)c(CO)c1 [Compound 1-157, (S)-1-(3′-(hydroxymethyl)-4′-(3-(5-(trifluoromethyl)pyridin-2-yloxy)pyrrolidin-1-yl)biphenyl-2-yl)ethanone] |  | 100 to 1000 | 211 |  |  | ~1.8 (≈ 0.822 µg/mL) | 17.5 |  |
| OCc1cc(C(O)c2ccccc2Cl)ccc1N1CC[C@H](Oc2ncccc2F)C1 (stereo partly drawn) [Compound 1-264, (2-chlorophenyl)(4-((S)-3-(3-fluoropyridin-2-yloxy)pyrrolidin-1-yl)-3-(hydroxymethyl)phenyl)methanol] |  | 10 to 100 | 54.1 | 10 to 100 | 79.3 | > 13.2 | 19.4 |  |
| CCc1cc(C)ccc1-c1ccc(C2CCN(C(=O)c3ccc(Cl)cn3)C2)c(CO)c1 (centres unmarked) [Compound 2-66, (5-chloropyridin-2-yl)(3-(2′-ethyl-3-(hydroxymethyl)-4′-methylbiphenyl-4-yl)pyrrolidin-1-yl)methanone] |  | 10 to 100 |  |  |  | ~1.9 (≈ 0.826 µg/mL) |  | IC50 (hTRPV3 [2]; Phase 1 current, human TRPV3, read-out: hTRPV3 (nM) Phase 1): 16.5 nM; half-life at 1 μM ([4]; read-out: LM T1/2 (min) rat): 24.9 min |
| Cc1ccccc1Oc1ccc(N2CC[C@H](Nc3ncccc3Cl)C2)c(CO)c1 [Compound 1-383, (S)-(2-(3-(3-chloropyridin-2-ylamino)pyrrolidin-1-yl)-5-(o-tolyloxy)phenyl)methanol] |  | 10 to 100 | 12.6 |  |  | ~0.35 (≈ 0.143 µg/mL) | 31.4 |  |
| NC(=O)c1cc(C(=O)c2ccccc2)ccc1N1CC[C@H](Oc2ncccc2Cl)C1 [Compound 1-136, (S)-5-benzoyl-2-(3-(3-chloropyridin-2-yloxy)pyrrolidin-1-yl)benzamide] |  |  |  |  |  | > 15 | 19.7 | IC50 (hTRPV3 [2]; hTRPV3 Patch P1 Inwd (nM)): > 1000 nM; IC50 (hTRPV3 [2]; hTRPV3 Patch P2 Inwd (nM)): > 1000 nM; IC50 (hTRPV3 [2]; read-out: hTRPV3 (nM) (Phase 1)): 1620 nM; IC50 (hTRPV3 [2]; read-out: hTRPV3 (nM) (Phase 2)): 1670 nM |
